Earlier results as cited in patent US9303023B2, “Pyrazole and imidazole derivatives useful as orexin antagonists” (ACTELION PHARMACEUTICALS LTD., priority 2011, dated 2016).

Experiments:
[1] = rat
[2] = rat model
amyloid-beta (Aβ) = conditions: after acute sleep restriction, amyloid precursor protein transgenic mice
[3] = rat fear-potentiated startle paradigm
[4] = mouse model of depression, administered chronically
[5] = fasted hungry rats exposed to food odors
[6] = in vivo

In the case of `CNC(=O)[C@@H](c1ccccc1)N1CCc2cc(OC)c(OC)cc2[C@@H]1CCc1ccc(C(F)(F)F)cc1` [(2R)-2-{(1S)-6,7-dimethoxy-1-[2-(4-trifluoromethyl-phenyl)-ethyl]-3,4-dihydro-1H-isoquinolin-2-yl}-N-methyl-2-phenyl-acetamide], the “alertness (active wake and locomotion)” value [1] is listed as “decrease alertness”, the “time spent in both REM and NREM sleep” value [1] is listed as “dose-dependently increase” and the memory function [2] is listed as “enhance memory function”. The “brain levels of amyloid-beta (Aβ) and Aβ plaque deposition” value (amyloid-beta (Aβ)) was “decreased”, the “activity in conditioned fear model” value [3] was “active” and the antidepressant-like activity [4] was “induce antidepressant-like activity”. The “natural activation induced by orexin A” value [5] was “attenuate the natural activation induced by orexin A”.

In the case of `COc1ccc(C[C@H]2c3cc(OC)c(OC)cc3CCN2[C@@H](C(=O)NC(C)C)c2ccccc2)cc1OC` [(R)-2-[(S)-1-(3,4-Dimethoxy-benzyl)-6,7-dimethoxy-3,4-dihydro-1H-isoquinolin-2-yl]-N-isopropyl-2-phenyl-acetamide], the “activity in conditioned fear model” value [3] is given as “active” and the “activity in animal model related to addictions” value [6] is given as “active”.
